Common to all, as to assay type: in vivo
For test [1], the system named is blackgrass (Alopecurus myosuroides). In words: Test A postemergence. The note with it: Alopecurus myosuroides, post-emergence, 240 h, 125 g ai/ha. In a few lines:
(§1)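 Seeds sprayed preemergence with a directed soil spray, or plants at 2 to 10 cm height and one- to two-leaf stage sprayed postemergence, with test chemicals in a non-phytotoxic solvent mixture containing surfactant, in loam soil–sand blend. Injury rated visually against untreated controls after about 10 d in greenhouse, 0 (no effect) to 100 (complete control).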

The test system of test [2] is Galium (catchweed bedstraw, Galium aparine). In words: Test A postemergence. The note with it: Galium, post-emergence, 240 h, 125 g ai/ha. In a few lines:
as §1

The test system of test [3] is giant foxtail (Setaria faberii). Kind of test: Test A postemergence. The note with it: Setaria faberi, post-emergence, 240 h, 125 g ai/ha. A digest of the protocol: as §1
For test [4], the system named is ragweed (common ragweed, Ambrosia elatior). In words: Test A postemergence. The note with it: Ambrosia artemisiifolia, post-emergence, 240 h, 125 g ai/ha. In a few lines:
as §1

The test system of test [5] is pigweed (Amaranthus retroflexus). Kind of test: Test A postemergence. The note with it: Amaranthus retroflexus, post-emergence, 240 h, 125 g ai/ha. A digest of the protocol: as §1
In a further test the test system is corn (Zea mays). Kind of test: Test A postemergence. The note with it: Zea mays, post-emergence, 240 h, 125 g ai/ha. A digest of the protocol: as §1
Test [6] concerns ryegrass, Italian (Italian ryegrass, Lolium multiflorum). In words: Test A postemergence. The note with it: Lolium multiflorum, post-emergence, 240 h, 125 g ai/ha. A digest of the protocol:
as §1

The test system of test [7] is wheat (Triticum aestivum). Kind of test: Test A postemergence. The note with it: Triticum aestivum, post-emergence, 240 h, 125 g ai/ha. A digest of the protocol: as §1
The subject of test [8] is barnyardgrass (Echinochloa crus-galli). Kind of test: Test A postemergence. The note with it: Echinochloa crus-galli, post-emergence, 240 h, 125 g ai/ha. A digest of the protocol:
as §1

The subject of test [9] is giant foxtail (Setaria faberii). In words: Test A preemergence. The note with it: Setaria faberi, pre-emergence, 240 h; for pest or weed control at 125 g/ha: 125 g ai/ha, preemergence, 0 to 100 scale where 0 is no effect and 100 is complete control, read-out: Foxtail, Giant plant response rating; for pest or weed control at 500 g/ha: 500 g ai/ha, Preemergence, visual injury vs untreated controls after approximately 10 d, read-out: Foxtail, Giant plant response rating (0 to 100 scale where 0 is no effect and 100 is complete control). In a few lines:
as §1

In test [10] the test system is ragweed (common ragweed, Ambrosia elatior). Kind of test: Test A preemergence. The note with it: Ambrosia artemisiifolia, pre-emergence, 240 h; for pest or weed control at 125 g/ha: 125 g ai/ha, preemergence, 0 to 100 scale where 0 is no effect and 100 is complete control, read-out: Ragweed plant response rating; for pest or weed control at 500 g/ha: 500 g ai/ha, Preemergence, visual injury vs untreated controls after approximately 10 d, read-out: Ragweed plant response rating (0 to 100 scale where 0 is no effect and 100 is complete control). In a few lines: as §1

In test [11] the test system is pigweed (Amaranthus retroflexus). In words: Test A preemergence. The note with it: Amaranthus retroflexus, pre-emergence, 240 h; for pest or weed control at 125 g/ha: 125 g ai/ha, preemergence, 0 to 100 scale where 0 is no effect and 100 is complete control, read-out: Pigweed plant response rating; for pest or weed control at 500 g/ha: 500 g ai/ha, Preemergence, visual injury vs untreated controls after approximately 10 d, read-out: Pigweed plant response rating (0 to 100 scale where 0 is no effect and 100 is complete control).

Another test relates to Kochia (Kochia scoparia). Kind of test: Test A preemergence. The note with it: Bassia scoparia, pre-emergence, 240 h; for pest or weed control at 125 g/ha: 125 g ai/ha, preemergence, 0 to 100 scale where 0 is no effect and 100 is complete control, read-out: Kochia plant response rating; for pest or weed control at 500 g/ha: 500 g ai/ha, Preemergence, visual injury vs untreated controls after approximately 10 d, read-out: Kochia plant response rating (0 to 100 scale where 0 is no effect and 100 is complete control). A digest of the protocol:
as §1

Test [12] relates to ryegrass, Italian (Italian ryegrass, Lolium multiflorum). In words: Test A preemergence. The note with it: Lolium multiflorum, pre-emergence, 240 h; for pest or weed control at 125 g/ha: 125 g ai/ha, preemergence, 0 to 100 scale where 0 is no effect and 100 is complete control, read-out: Ryegrass, Italian plant response rating; for pest or weed control at 500 g/ha: 500 g ai/ha, Preemergence, visual injury vs untreated controls after approximately 10 d, read-out: Ryegrass, Italian plant response rating (0 to 100 scale where 0 is no effect and 100 is complete control). In a few lines: as §1

Test [13] deals with barnyardgrass (Echinochloa crus-galli). Kind of test: Test A preemergence. The note with it: Echinochloa crus-galli, pre-emergence, 240 h; for pest or weed control at 125 g/ha: 125 g ai/ha, preemergence, 0 to 100 scale where 0 is no effect and 100 is complete control, read-out: Barnyardgrass plant response rating; for pest or weed control at 500 g/ha: 500 g ai/ha, Preemergence, visual injury vs untreated controls after approximately 10 d, read-out: Barnyardgrass plant response rating (0 to 100 scale where 0 is no effect and 100 is complete control). In a few lines:
as §1

Like-named read-outs stand apart in the source and are kept apart here.

`CN1CC[C@H](c2cccc(C(F)(F)F)c2)[C@@H](C(=O)Nc2ccccc2S(C)(=O)=O)C1=O` [Compound 920]: the pest or weed control at 125 g/ha in test [1] (Postemergence, visual injury after approximately 10 d, 0 to 100 scale where 0 is no effect and 100 is complete control, read-out: Plant response rating, Blackgrass) was 0%; in test [2] (Postemergence, visual injury after approximately 10 d, 0 to 100 scale where 0 is no effect and 100 is complete control, read-out: Plant response rating, Galium), 0%; in test [3] (Postemergence, visual injury after approximately 10 d, 0 to 100 scale where 0 is no effect and 100 is complete control, read-out: Plant response rating, Foxtail, Giant), 20%; in test [4] (Postemergence, visual injury after approximately 10 d, 0 to 100 scale where 0 is no effect and 100 is complete control, read-out: Plant response rating, Ragweed), 0%; in test [5] (Postemergence, visual injury after approximately 10 d, 0 to 100 scale where 0 is no effect and 100 is complete control, read-out: Plant response rating, Pigweed) it was 0%; in test [6] (Postemergence, visual injury after approximately 10 d, 0 to 100 scale where 0 is no effect and 100 is complete control, read-out: Plant response rating, Ryegrass, Italian) it was 0%. Moreover, the pest or weed control at 125 g/ha in test [8] (Postemergence, visual injury after approximately 10 d, 0 to 100 scale where 0 is no effect and 100 is complete control, read-out: Plant response rating, Barnyardgrass) worked out at 40%; in [9], 80%; in test [10], 0%; in test [11] it was 0%; in the test with Kochia (Kochia scoparia), 0%; in test [12], 0%. Besides, the pest or weed control at 125 g/ha in [13] was found to be 70%. In the test with corn (Zea mays) (Postemergence, visual injury after approximately 10 d, 0 to 100 scale where 0 is no effect and 100 is complete control), this compound registered a Corn plant response rating (crop injury, 0 = no effect, 100 = complete kill) at 125 g/ha of 0%. Further, the plant injury at 125 g/ha in test [7] (Postemergence, visual injury after approximately 10 d, 0 to 100 scale where 0 is no effect and 100 is complete control, read-out: Plant response rating, Wheat) was 0%. Besides, the pest or weed control at 500 g/ha in test [9] was determined as 90%; in test [10] it was 0%; in test [11] it was 0%; in the test with Kochia (Kochia scoparia), 0%; in test [12], 0%; in [13], 90%.

With `Cc1cc(C)cc([C@H]2CNC(=O)[C@@H]2C(=O)Nc2cccc(F)c2F)c1` [Compound 889], the pest or weed control at 125 g/ha in [1] (postemergence, visual injury rating after approximately 10 d, read-out: Blackgrass plant response rating (0 to 100 scale, 0 no effect, 100 complete control)) was 20%; in test [2] (postemergence, visual injury rating after approximately 10 d, read-out: Galium plant response rating (0 to 100 scale, 0 no effect, 100 complete control)), 30%; in test [3] (postemergence, visual injury rating after approximately 10 d, read-out: Foxtail, Giant plant response rating (0 to 100 scale, 0 no effect, 100 complete control)), 40%; in test [4] (postemergence, visual injury rating after approximately 10 d, read-out: Ragweed plant response rating (0 to 100 scale, 0 no effect, 100 complete control)) it was 0%; in test [5] (postemergence, visual injury rating after approximately 10 d, read-out: Pigweed plant response rating (0 to 100 scale, 0 no effect, 100 complete control)), 0%; in test [6] (postemergence, visual injury rating after approximately 10 d, read-out: Ryegrass, Italian plant response rating (0 to 100 scale, 0 no effect, 100 complete control)), 40%. Besides, the pest or weed control at 125 g/ha in test [8] (postemergence, visual injury rating after approximately 10 d, read-out: Barnyardgrass plant response rating (0 to 100 scale, 0 no effect, 100 complete control)) worked out at 70%; in [9] it was 90%; in [10] it was 30%; in test [11], 0%; in the test with Kochia (Kochia scoparia), 80%; in test [12] it was 30%. Moreover, in [13], the pest or weed control at 125 g/ha was 90%. The plant injury at 125 g/ha turned out to be 20% with corn (Zea mays) (postemergence, visual injury rating after approximately 10 d, read-out: Corn plant response rating (0 to 100 scale, 0 no effect, 100 complete control)) and 0% in [7] (postemergence, visual injury rating after approximately 10 d, read-out: Wheat plant response rating (0 to 100 scale, 0 no effect, 100 complete control)). Besides, the pest or weed control at 500 g/ha in test [9] came to 90%; in test [10], 40%; in [11], 0%; in the test on Kochia (Kochia scoparia) it was 80%; in test [12] it was 40%; in [13], 90%.

The values are drawn from US12077503B2, “Substituted cyclic amides and their use as herbicides” (FMC CORPORATION, priority 2015, dated 2024).
